“Also recorded” adds a separate entry of the source.
Tests used:
[1] = system: HT22 cells; assay: Hypoxia/reoxygenation-induced cell death, LDH release assay; type: cell-based
Method: (§1) HT22 cells were cultured in DMEM containing 10% FBS in a 10% CO2 incubator at 37° C.
(§2) Hypoxia loading was performed by using an oxygen absorber/CO2 generator AnaeroPack Kenki For Cell™, and reoxygenation was performed by restoring the condition to normoxia.
LDH assay was conducted using a supernatant of a medium of cells treated as intended as a sample and a measurement kit (LDH cytotoxic test).
Specifically, the cells were cultured in a 96-well assay plate and treated as intended. Then, 50 μL of only the medium was collected and transferred to a newly prepared plate. A coloring reagent was added to each well. After incubation for 20 minutes, 100 μL of a reaction stop solution was added thereto, and the absorbance at 570 nm was measured using a microplate reader. The results are indicated relative to the absorbance of control cells defined as 100%.
LDH release was measured after hypoxia for 18 hours (H18) and subsequent reoxygenation for 24 hours (R24). Cells placed under normoxia for 42 (18+24) hours (N42) were used as a control. GR103691 was added immediately before reoxygenation (or after 18-hour culture to the control cells).
LDH release was measured after hypoxia for 18 hours (H18) and subsequent reoxygenation for 24 hours (R24). Cells placed under normoxia for 42 (18+24) hours (N42) were used as a control. Nafadotride was added immediately before reoxygenation (or after 18-hour culture for the control cells).

[2] = system: HT22 cells; assay: Glutamic acid-induced cell death, MTT assay; type: cell-based; settings: MTT 24 hours after glutamic acid, added immediately before glutamic acid
Method: (§3) HT22 cells were cultured in DMEM containing 10% FBS in a 10% CO2 incubator at 37° C. MTT assay was conducted according to a ordinary method by using cells treated as intended as a sample. Specifically, the cells were cultured in a 96-well assay plate and treated as intended. Then, 10 μL of an MTT solution was added to each well, followed by incubation for 4 hours. 100 μL of a reaction stop solution was added thereto. The plate was left overnight, and the absorbance (measurement wavelength: 570 nm, control wavelength: 655 nm) was then measured using a microplate reader. The results are indicated relative to the absorbance of control cells defined as 100%. In this context, the MTT value is a value that indicates mitochondrial reductive capacity. This value correlates with cell viability in many cases and is therefore used as an index of cell viability. It has been confirmed as to the glutamic acid-induced cell death of HT22 cells that the results of MTT assay correlate with cell viability. MTT assay was conducted 24 hours after addition of glutamic acid. GR103691 was added immediately before the addition of glutamic acid (Glu).

[3] = system: HT22 cells; assay: Tunicamycin-induced cell death, MTT assay; type: cell-based; settings: MTT 24 hours after tunicamycin, added immediately before tunicamycin
Method: as §3, with “tunicamycin (TM).” for “glutamic acid.”, “tunicamycin (TM).” for “glutamic acid (Glu).”

[4] = system: HT22 cells; assay: Intracellular reactive oxygen species (ROS) assay with H2DCFDA after hypoxia-reoxygenation loading; type: cell-based; settings: 3 μM, added immediately before reoxygenation, hypoxia 18 h, reoxygenation 3 h
Method: as §1, §2
Intracellular ROS levels were measured by using H2DCFDA. Cells were treated as intended and then treated with 5 μM H2DCFDA. After 15 minutes, the cells were observed under a fluorescence microscope (480 nm/526 nm).
Time-dependent change of ROS was examined during reoxygenation for 12 hours after hypoxia for 18 hours (H18). Cells placed under normoxia for the same hours (N30) were used as a control. GR103691 was added at a concentration of 3 μM immediately before reoxygenation (or after 18-hour culture to the control cells).

[5] = system: hippocampal CA1 region; assay: Mouse cerebral ischemia/reperfusion model, FJB and ssDNA staining of hippocampal CA1 region; type: in vivo, C57BL/6J mice; settings: 72 hours after reperfusion
Method: Male C57BL/6J mice (9-12 week old) were used. After halothane anesthesia, the left and right common carotid arteries were ligated for 17 minutes while the cerebral blood flow was monitored. Then, the blood flow was resumed to prepare a cerebral ischemia/reperfusion model. Paraffin sections of the brain were prepared 72 hours after reperfusion according to an ordinary method and immunostained with Fluoro Jade B (FJB) that stains dead cells green or with single-stranded DNA (ssDNA) that permits detection of apoptosis cells by the staining of nuclear fragmentation. The cells were observed under a microscope. GR103691 was administered at a dose of 1, 3, or 10 mg/kg from the tail vein of each mouse within 10 minutes after reperfusion. Moreover, for comparison, edaravone (manufactured by CALBIOCHEM) used for improving neurological symptoms, problems with movement of daily living, and dysfunction at the acute stage of brain infarction was administered at a dose of 3 or 10 mg/kg to each mouse. A saline-administered group and a sham group without only ischemia treatment were observed as controls.
In FIG. 7, the bright green color represents apoptosis cells. Moreover, the number of FJB-positive cells was counted to determine its proportion to the total number of cells (FIG. 8). The results of each group are indicated as mean±standard error.

[6] = HT22 cells, added immediately before reoxygenation
[7] = HT22 cells, hypoxia 18 h, reoxygenation 24 h, added immediately before reoxygenation
[8] = 10 mg/kg from the tail vein within 10 minutes after reperfusion
[9] = 1, 3, or 10 mg/kg from the tail vein within 10 minutes after reperfusion

| Compound | LDH release of the control cells ([1]; HT22 cells under normoxia 42 h (N42), added after 18-hour culture) | increase of LDH release caused by H18/R24 [1, 6] | LDH release of H18/R24-treated cells (hypoxia/reoxygenation-induced cell death) [1, 7] | concentration at which the reduction of LDH release of H18/R24-treated cells was significant [1, 7] [µM] | reduction of MTT value caused by glutamic acid (glutamic acid-induced cell death) [2] | reduction of MTT value caused by TM (tunicamycin-induced cell death) [3] | transient increase of ROS in H18/R3-treated cells (H2DCFDA-positive cells) [4] | cell death in the hippocampal CA1 region (FJB-positive cells) [5, 8] | ssDNA-positive cells in the hippocampal CA1 region [5, 8] | cell death in the hippocampal CA1 region (FJB-positive cells) [5, 9] | ssDNA-positive cells in the hippocampal CA1 region [5, 9] | decreasing effect on ssDNA-positive cells in the hippocampal CA1 region, compared with GR103691 ([5]; edaravone 3 or 10 mg/kg) | inhibitory effect on cell death in the hippocampal CA1 region (FJB-positive cells), compared with GR103691 ([5]; edaravone 3 or 10 mg/kg) |
| --- | --- | --- | --- | --- | --- | --- | --- | --- | --- | --- | --- | --- | --- |
| COc1ccccc1N1CCN(CCCCNC(=O)c2ccc(-c3ccc(C(C)=O)cc3)cc2)CC1 [GR103691, 4′-acetyl-N-[4-[4-(2-methoxyphenyl)-1-piperazinyl]butyl]-[1,1′-biphenyl]-4-carboxamide] | not influenced | almost the maximum effect | reduced the LDH release of the H18/R24-treated cells in a concentration-dependent manner | ≥ 1 | significantly recovered the reduction of MTT value | did not influence the reduction of MTT value | inhibited | significantly inhibited | significantly decreased | inhibited such cell death in a dose-dependent manner | decreased by GR103691 in a dose-dependent manner |  |  |
| CC1=NN(c2ccccc2)C(=O)C1 [edaravone, reference compound] |  |  |  |  |  |  |  |  |  |  |  | almost the same level | almost the same level |
| CCCCN1CCCC1CNC(=O)c1cc(C#N)c2ccccc2c1OC (centres unmarked) [nafadotride, reference compound] |  | did not inhibit apoptosis; also recorded: did not influence increase of LDH release |  |  |  |  |  |  |  |  |  |  |  |
